Measurements reported in paper PMC4447944 (The Journal of Biological Chemistry, 2015).

What was measured:
hCTK = molecular target: T1, hCTK (Homo sapiens, UniProt P42679); test: KINOMEscan; type: binding
T1 construct: purchased DiscoverX (KINOMEscan platform)

hADORA3 [1] = molecular target: T2, hADORA3 (Homo sapiens, UniProt P0DMS8); test: cAMP Potentiation (Eurofins-CEREP); settings: @ 10 μM
T2 sequence (P0DMS8 1-318): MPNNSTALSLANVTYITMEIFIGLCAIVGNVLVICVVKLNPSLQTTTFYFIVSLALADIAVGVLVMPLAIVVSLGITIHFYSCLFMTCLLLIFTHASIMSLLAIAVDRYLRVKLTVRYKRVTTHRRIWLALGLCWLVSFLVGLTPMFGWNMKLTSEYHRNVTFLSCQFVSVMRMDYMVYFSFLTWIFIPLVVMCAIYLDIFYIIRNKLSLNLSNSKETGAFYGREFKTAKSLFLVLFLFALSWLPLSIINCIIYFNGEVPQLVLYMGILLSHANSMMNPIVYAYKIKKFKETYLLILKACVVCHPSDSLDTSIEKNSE

hJAK2(JH1Dom.-catalytic) = molecular target: T3, hJAK2(JH1Dom.-catalytic) (Homo sapiens, UniProt O60674); test: KINOMEscan; type: binding
T3 construct: hJAK2(JH1Dom.-catalytic); purchased DiscoverX (KINOMEscan panel)

hJAK3(JH1Dom.-catalytic) = molecular target: T4, hJAK3(JH1Dom.-catalytic) (Homo sapiens, UniProt P52333); test: KINOMEscan; type: binding
T4 construct: hJAK3(JH1Dom.-catalytic); purchased DiscoverX (KINOMEscan panel)

hLYN = molecular target: T5, hLYN (Homo sapiens, UniProt P07948); test: KINOMEscan; type: binding
T5 construct: purchased DiscoverX (KINOMEscan platform)

hEPHB1 = molecular target: T6, hEPHB1 (Homo sapiens, UniProt P54762); test: KINOMEscan; type: binding
T6 construct: purchased DiscoverX

hRIPK1 = molecular target: T7, hRIPK1 (Homo sapiens, UniProt Q13546); test: KINOMEscan; type: binding
T7 construct: purchased DiscoverX (KINOMEscan platform)

[2] = molecular target: T8, hTYK2(JH2Dom.-pseudokinase) (Homo sapiens, UniProt P29597); test: KINOMEscan; type: binding
T8 construct: hTYK2(JH2Dom.-pseudokinase); purchased DiscoverX

hSGK = molecular target: T9, hSGK (Homo sapiens, UniProt O00141); test: KINOMEscan; type: binding
T9 construct: purchased DiscoverX (KINOMEscan platform)

hCSNK1A1L = molecular target: T10, hCSNK1A1L (Homo sapiens, UniProt Q8N752); test: KINOMEscan; type: binding
T10 construct: purchased DiscoverX (KINOMEscan platform)

hZAK = molecular target: T11, hZAK (Homo sapiens, UniProt Q9NYL2); test: KINOMEscan; type: binding
T11 construct: purchased DiscoverX

hROCK2 = molecular target: T12, hROCK2 (Homo sapiens, UniProt O75116); test: KINOMEscan; type: binding
T12 construct: purchased DiscoverX (KINOMEscan platform)

hTGFBR2 = molecular target: T13, hTGFBR2 (Homo sapiens, UniProt P37173); test: KINOMEscan; type: binding
T13 construct: purchased DiscoverX

hADCK3 = molecular target: T14, hADCK3 (Homo sapiens, UniProt Q8NI60); test: KINOMEscan; type: binding
T14 construct: purchased DiscoverX

hEGFR(S752-I759del) = molecular target: T15, hEGFR(S752-I759del) (Homo sapiens, UniProt P00533, DEL752-759); test: KINOMEscan; type: binding
T15 construct: purchased DiscoverX

hPIP5K1A = molecular target: T16, hPIP5K1A (Homo sapiens, UniProt Q99755); test: KINOMEscan; type: binding
T16 construct: purchased DiscoverX

hBIKE = molecular target: T17, hBIKE (Homo sapiens, UniProt Q9NSY1); test: KINOMEscan; type: binding
T17 construct: purchased DiscoverX

hFLT3-autoinhibited = molecular target: T18, hFLT3-autoinhibited (Homo sapiens, UniProt P36888); test: KINOMEscan; type: binding
T18 construct: purchased DiscoverX

hEPHA7 = molecular target: T19, hEPHA7 (Homo sapiens, UniProt Q15375); test: KINOMEscan; type: binding
T19 construct: purchased DiscoverX

hIKK-alpha = molecular target: T20, hIKK-alpha (Homo sapiens, UniProt O15111); test: KINOMEscan; type: binding
T20 construct: purchased DiscoverX (KINOMEscan panel)

hRIPK5 = molecular target: T21, hRIPK5 (Homo sapiens, UniProt Q6XUX3); test: KINOMEscan; type: binding
T21 construct: purchased DiscoverX (KINOMEscan platform)

hTTK = molecular target: T22, hTTK (Homo sapiens, UniProt P33981); test: KINOMEscan; type: binding
T22 construct: purchased DiscoverX

hCSNK2A2 = molecular target: T23, hCSNK2A2 (Homo sapiens, UniProt P19784); test: KINOMEscan; type: binding
T23 construct: purchased DiscoverX (KINOMEscan platform)

hM3 = hM3 (Homo sapiens, UniProt P20309); test: Calcium Mobilization Agonist (Eurofins-CEREP); settings: @ 13.3 μM
hABL1(pM351T) = molecular target: T24, hABL1(pM351T) (Homo sapiens, UniProt P00519, M351T); test: KINOMEscan; type: binding
T24 construct: purchased DiscoverX (KINOMEscan platform)

hULK2 = molecular target: T25, hULK2 (Homo sapiens, UniProt Q8IYT8); test: KINOMEscan; type: binding
T25 construct: purchased DiscoverX

hADRβ2 = hADRβ2 (Homo sapiens, UniProt P07550); test: cAMP Potentiation (Eurofins-CEREP); settings: @ 10 μM
hBRAF = molecular target: T26, hBRAF (Homo sapiens, UniProt P15056); test: KINOMEscan; type: binding
T26 construct: purchased DiscoverX

hEGFR(L861Q) = molecular target: T27, hEGFR(L861Q) (Homo sapiens, UniProt P00533, L861Q); test: KINOMEscan; type: binding
T27 construct: purchased DiscoverX

hMKNK2 = molecular target: T28, hMKNK2 (Homo sapiens, UniProt Q9HBH9); test: KINOMEscan; type: binding
T28 construct: purchased DiscoverX

hMEK3 = molecular target: T29, hMEK3 (Homo sapiens, UniProt P46734); test: KINOMEscan; type: binding
T29 construct: purchased DiscoverX

hADORA3 [3] = molecular target: T2, hADORA3; test: cAMP Agonist (Eurofins-CEREP); settings: @ 10 μM
hEPHA5 = molecular target: T30, hEPHA5 (Homo sapiens, UniProt P54756); test: KINOMEscan; type: binding
T30 construct: purchased DiscoverX

hKIT(V559D) = molecular target: T31, hKIT(V559D) (Homo sapiens, UniProt P10721, V559D); test: KINOMEscan; type: binding
T31 construct: purchased DiscoverX (KINOMEscan platform)

hPYK2 = molecular target: T32, hPYK2 (Homo sapiens, UniProt Q14289); test: KINOMEscan; type: binding
T32 construct: purchased DiscoverX

hBMPR2 = molecular target: T33, hBMPR2 (Homo sapiens, UniProt Q13873); test: KINOMEscan; type: binding
T33 construct: purchased DiscoverX

T30 sequence (P54756 25-1037): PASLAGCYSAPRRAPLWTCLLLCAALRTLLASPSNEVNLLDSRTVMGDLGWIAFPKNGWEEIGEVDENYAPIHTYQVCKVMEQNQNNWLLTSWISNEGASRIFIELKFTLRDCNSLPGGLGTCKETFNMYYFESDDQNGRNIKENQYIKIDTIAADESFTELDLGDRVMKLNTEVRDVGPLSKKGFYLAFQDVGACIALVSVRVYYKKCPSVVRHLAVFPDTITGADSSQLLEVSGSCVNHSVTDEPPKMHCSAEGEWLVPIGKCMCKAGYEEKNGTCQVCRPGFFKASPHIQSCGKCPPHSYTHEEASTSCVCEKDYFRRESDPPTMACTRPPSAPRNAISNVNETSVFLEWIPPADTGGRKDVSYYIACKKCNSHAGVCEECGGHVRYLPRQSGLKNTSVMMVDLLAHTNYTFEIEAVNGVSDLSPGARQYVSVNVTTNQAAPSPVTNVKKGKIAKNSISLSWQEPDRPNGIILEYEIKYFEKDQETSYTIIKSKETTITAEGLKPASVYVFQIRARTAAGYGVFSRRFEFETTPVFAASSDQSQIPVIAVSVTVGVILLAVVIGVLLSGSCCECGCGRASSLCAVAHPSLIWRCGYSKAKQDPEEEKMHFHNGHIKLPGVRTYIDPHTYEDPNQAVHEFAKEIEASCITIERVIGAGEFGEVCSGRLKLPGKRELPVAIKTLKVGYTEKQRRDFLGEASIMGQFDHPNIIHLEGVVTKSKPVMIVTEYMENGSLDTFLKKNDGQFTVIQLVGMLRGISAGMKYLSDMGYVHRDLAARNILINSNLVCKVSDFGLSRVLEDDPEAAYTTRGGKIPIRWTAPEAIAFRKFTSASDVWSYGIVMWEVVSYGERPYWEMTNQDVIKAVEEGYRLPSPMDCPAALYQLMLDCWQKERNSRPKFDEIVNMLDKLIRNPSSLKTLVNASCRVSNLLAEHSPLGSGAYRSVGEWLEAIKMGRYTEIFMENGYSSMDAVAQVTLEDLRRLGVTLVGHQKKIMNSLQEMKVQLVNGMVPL
T4 sequence (P52333 822-1111 limits assumed): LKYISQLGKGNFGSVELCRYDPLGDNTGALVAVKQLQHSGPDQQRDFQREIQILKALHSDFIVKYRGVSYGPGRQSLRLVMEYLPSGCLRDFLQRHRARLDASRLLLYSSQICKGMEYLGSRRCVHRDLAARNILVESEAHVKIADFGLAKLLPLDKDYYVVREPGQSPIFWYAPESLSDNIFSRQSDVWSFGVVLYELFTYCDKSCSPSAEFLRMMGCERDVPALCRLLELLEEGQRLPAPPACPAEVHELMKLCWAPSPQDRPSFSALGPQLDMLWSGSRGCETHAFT
T22 sequence (P33981 whole entry): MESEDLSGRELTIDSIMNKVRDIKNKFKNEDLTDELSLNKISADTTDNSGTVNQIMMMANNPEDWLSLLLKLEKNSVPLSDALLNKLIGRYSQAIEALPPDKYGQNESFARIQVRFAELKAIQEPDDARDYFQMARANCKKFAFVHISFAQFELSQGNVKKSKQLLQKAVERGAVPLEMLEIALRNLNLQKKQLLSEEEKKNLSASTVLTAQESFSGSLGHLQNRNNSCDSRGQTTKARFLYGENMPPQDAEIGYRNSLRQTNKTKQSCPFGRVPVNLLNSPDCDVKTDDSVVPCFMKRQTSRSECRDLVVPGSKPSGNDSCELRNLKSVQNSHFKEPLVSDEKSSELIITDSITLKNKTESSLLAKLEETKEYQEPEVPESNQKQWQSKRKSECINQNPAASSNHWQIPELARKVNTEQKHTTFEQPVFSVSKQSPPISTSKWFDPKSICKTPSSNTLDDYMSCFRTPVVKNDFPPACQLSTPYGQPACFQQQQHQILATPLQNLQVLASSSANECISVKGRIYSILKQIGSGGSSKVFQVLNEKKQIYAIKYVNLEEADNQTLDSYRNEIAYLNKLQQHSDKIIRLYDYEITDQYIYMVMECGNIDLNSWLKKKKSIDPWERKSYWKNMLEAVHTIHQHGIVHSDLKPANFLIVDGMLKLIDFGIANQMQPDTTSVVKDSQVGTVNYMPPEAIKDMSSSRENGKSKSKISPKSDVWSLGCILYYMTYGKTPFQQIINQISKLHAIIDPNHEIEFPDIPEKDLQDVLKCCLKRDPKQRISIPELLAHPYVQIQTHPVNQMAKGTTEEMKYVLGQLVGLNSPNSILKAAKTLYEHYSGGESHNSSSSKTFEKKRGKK
T19 sequence (Q15375 28-998): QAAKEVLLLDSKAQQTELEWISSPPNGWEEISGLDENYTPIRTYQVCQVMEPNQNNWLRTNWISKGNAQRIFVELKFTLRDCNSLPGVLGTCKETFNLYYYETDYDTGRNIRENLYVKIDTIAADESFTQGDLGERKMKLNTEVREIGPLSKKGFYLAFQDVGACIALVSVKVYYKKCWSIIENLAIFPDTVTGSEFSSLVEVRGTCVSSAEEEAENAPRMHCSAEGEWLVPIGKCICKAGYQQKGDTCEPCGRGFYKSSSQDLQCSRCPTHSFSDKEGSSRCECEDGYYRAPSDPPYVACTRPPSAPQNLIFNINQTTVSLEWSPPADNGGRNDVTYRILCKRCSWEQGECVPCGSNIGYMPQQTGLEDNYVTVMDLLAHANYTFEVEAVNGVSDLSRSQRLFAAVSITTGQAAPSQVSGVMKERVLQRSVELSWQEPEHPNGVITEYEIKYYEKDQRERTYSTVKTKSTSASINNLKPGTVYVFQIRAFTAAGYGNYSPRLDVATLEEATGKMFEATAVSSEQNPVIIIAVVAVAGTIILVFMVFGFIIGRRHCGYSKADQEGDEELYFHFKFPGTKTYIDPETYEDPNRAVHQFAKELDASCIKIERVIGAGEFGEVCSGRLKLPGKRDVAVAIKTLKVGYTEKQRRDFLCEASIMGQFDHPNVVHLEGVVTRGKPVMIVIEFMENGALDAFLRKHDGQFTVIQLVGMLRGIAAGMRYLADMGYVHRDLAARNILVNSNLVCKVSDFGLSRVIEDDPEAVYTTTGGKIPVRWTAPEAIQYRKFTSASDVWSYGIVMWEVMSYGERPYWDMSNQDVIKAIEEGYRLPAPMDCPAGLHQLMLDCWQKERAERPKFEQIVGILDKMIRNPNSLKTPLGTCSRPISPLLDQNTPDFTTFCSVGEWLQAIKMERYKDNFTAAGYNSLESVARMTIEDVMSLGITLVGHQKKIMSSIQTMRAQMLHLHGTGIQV
T17 sequence (Q9NSY1 whole entry): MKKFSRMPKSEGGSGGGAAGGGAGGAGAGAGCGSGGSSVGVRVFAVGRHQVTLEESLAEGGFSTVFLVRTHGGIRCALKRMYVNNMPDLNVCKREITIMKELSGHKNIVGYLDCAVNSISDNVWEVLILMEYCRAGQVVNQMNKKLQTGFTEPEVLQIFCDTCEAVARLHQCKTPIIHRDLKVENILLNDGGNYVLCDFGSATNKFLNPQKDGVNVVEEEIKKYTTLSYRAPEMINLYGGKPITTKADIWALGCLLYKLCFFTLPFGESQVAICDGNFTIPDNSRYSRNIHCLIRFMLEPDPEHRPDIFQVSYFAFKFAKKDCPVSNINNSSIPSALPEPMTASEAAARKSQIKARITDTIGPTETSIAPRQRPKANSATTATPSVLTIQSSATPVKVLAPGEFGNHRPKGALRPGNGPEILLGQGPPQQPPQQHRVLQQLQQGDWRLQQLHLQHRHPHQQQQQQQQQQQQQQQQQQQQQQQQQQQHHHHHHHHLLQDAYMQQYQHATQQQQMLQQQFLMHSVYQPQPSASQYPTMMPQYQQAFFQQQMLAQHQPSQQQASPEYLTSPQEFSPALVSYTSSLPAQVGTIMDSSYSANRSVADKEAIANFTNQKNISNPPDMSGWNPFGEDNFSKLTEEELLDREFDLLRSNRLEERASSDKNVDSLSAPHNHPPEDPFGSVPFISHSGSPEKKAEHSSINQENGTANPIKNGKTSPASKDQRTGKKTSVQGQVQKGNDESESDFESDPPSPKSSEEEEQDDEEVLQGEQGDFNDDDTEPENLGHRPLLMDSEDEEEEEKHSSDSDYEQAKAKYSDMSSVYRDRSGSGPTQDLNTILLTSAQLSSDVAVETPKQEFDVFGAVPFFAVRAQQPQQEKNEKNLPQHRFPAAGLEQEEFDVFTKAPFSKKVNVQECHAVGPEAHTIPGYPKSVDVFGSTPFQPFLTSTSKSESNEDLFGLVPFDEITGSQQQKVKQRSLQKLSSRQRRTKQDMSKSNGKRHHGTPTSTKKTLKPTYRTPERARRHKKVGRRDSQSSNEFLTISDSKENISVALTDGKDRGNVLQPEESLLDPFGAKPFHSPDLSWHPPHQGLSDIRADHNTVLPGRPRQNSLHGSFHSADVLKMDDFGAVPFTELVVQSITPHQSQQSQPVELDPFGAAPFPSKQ
T9 sequence (O00141 whole entry): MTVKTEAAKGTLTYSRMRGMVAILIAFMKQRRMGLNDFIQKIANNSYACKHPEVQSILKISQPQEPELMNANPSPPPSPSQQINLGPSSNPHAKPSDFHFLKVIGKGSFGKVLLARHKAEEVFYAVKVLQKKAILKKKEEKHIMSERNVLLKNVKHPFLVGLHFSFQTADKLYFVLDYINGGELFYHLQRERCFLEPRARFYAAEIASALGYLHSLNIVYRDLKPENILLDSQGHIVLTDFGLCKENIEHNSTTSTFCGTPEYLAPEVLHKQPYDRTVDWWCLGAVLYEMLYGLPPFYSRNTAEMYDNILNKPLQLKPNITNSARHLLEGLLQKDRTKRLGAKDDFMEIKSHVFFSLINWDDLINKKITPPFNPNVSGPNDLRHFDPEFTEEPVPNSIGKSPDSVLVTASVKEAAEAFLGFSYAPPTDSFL
T23 sequence (P19784 whole entry): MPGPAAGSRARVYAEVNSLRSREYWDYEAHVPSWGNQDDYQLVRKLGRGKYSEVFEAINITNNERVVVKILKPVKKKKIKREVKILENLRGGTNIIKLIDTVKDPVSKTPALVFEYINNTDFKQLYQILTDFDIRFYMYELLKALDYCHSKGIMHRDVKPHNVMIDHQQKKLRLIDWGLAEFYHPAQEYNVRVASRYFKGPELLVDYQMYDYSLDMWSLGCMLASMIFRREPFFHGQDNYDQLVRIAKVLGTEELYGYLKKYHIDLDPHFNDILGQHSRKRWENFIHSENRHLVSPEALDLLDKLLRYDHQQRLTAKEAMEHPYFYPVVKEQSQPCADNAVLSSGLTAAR

Cc1cn(CCN2CCN(c3ccccc3-c3cc(C#N)cc(C(=O)NCCCN4CCCC4)c3)CC2)c2ccccc12 [LLY-507, 3-cyano-5-{2-[4-[2-(3-methylindol-1-yl)ethyl]piperazin-1-yl]-phenyl}-N-[(3-pyrrolidin-1-yl)propyl]benzamide]
IC50 (hCTK): > 20 µM
% Effect, Potentiation (hADORA3 [1]): -7.3%
IC50 (hJAK2(JH1Dom.-catalytic)): > 20 µM
IC50 (hJAK3(JH1Dom.-catalytic)): > 20 µM
IC50 (hLYN): > 20 µM
IC50 (hEPHB1): > 20 µM
IC50 (hRIPK1): > 20 µM
IC50 [2]: > 20 µM
IC50 (hSGK): > 20 µM
IC50 (hCSNK1A1L): > 20 µM
IC50 (hZAK): > 20 µM
IC50 (hROCK2): > 20 µM
IC50 (hTGFBR2): > 20 µM
IC50 (hADCK3): > 20 µM
IC50 (hEGFR(S752-I759del)): > 20 µM
IC50 (hPIP5K1A): 16.4 µM
IC50 (hBIKE): > 20 µM
IC50 (hFLT3-autoinhibited): > 20 µM
IC50 (hEPHA7): > 20 µM
IC50 (hIKK-alpha): > 20 µM
IC50 (hRIPK5): > 20 µM
IC50 (hTTK): > 20 µM
IC50 (hCSNK2A2): > 20 µM
% Effect, Stimulation (hM3): -1.4%
IC50 (hABL1(pM351T)): > 20 µM
IC50 (hULK2): > 20 µM
% Effect, Potentiation (hADRβ2): -27.2%
IC50 (hBRAF): > 20 µM
IC50 (hEGFR(L861Q)): > 20 µM
IC50 (hMKNK2): > 20 µM
IC50 (hMEK3): > 20 µM
% Effect, Stimulation (hADORA3 [3]): 2.6%
IC50 (hEPHA5): > 20 µM
IC50 (hKIT(V559D)): > 20 µM
IC50 (hPYK2): > 20 µM
IC50 (hBMPR2): > 20 µM
